According to PubChem BioAssay (NCI):
Values joined by “and” are separate entries in the source; they are usually repeats but may differ in a detail not shown here. Equal entries are not always repeated.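 Interpolation was linear, between the two tested concentrations surrounding the appropriate level; five concentrations were tested over 48 hours in 96-well plates. Here, GI50 denotes the concentration required for 50% inhibition of growth. TGI: total growth inhibition.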 Where a SMILES comes first, the peptide text is derived from it. [ ]: non-standard residue; d: D form. The star is where a group is joined. ξ: configuration not given here. NMeF = CN[C@@H](Cc1ccccc1)C(=O)O; NMeV = CN[C@H](C(=O)O)C(C)C; ξNMeN = CNC(CC(N)=O)C(=O)O; NMeA = CN[C@@H](C)C(=O)O; ξNMeV = CNC(C(=O)O)C(C)C; Boc = CC(C)(C)OC(=O)*

What was measured:
Assay in all cases: NCI-60 cell line screen, 48 h
UACC-62 melanoma = tested on: UACC-62 melanoma
SK-MEL-2 melanoma = tested on: SK-MEL-2 melanoma
OVCAR-3 ovarian = tested on: OVCAR-3 ovarian
XF 498 CNS = tested on: XF 498 CNS
ACHN renal = tested on: ACHN renal
EKVX NSCLC = tested on: EKVX NSCLC
SW-620 colon = tested on: SW-620 colon
SF-268 CNS = tested on: SF-268 CNS
A498 renal = tested on: A498 renal
SK-MEL-5 melanoma = tested on: SK-MEL-5 melanoma
MDA-MB-435 = tested on: MDA-MB-435
M14 melanoma = tested on: M14 melanoma
OVCAR-8 ovarian = tested on: OVCAR-8 ovarian
SF-539 CNS = tested on: SF-539 CNS
OVCAR-5 ovarian = tested on: OVCAR-5 ovarian
KM12 colon = tested on: KM12 colon
MALME-3M melanoma = tested on: MALME-3M melanoma
CCRF-CEM leukemia = tested on: CCRF-CEM leukemia
DMS 273 small cell lung = tested on: DMS 273 small cell lung
DLD-1 colon = tested on: DLD-1 colon
OVCAR-4 ovarian = tested on: OVCAR-4 ovarian
MOLT-4 leukemia = tested on: MOLT-4 leukemia
IGROV1 ovarian = tested on: IGROV1 ovarian
NCI-H522 lung = tested on: NCI-H522 lung
HT29 colon = tested on: HT29 colon
SNB-19 CNS = tested on: SNB-19 CNS
U251 CNS = tested on: U251 CNS
SN12C renal = tested on: SN12C renal
SNB-75 CNS = tested on: SNB-75 CNS
KM20L2 colon = tested on: KM20L2 colon
MCF7 breast = tested on: MCF7 breast
MDA-MB-231 breast = tested on: MDA-MB-231 breast
COLO 205 colon = tested on: COLO 205 colon
UO-31 renal = tested on: UO-31 renal
HOP-62 NSCLC = tested on: HOP-62 NSCLC
786-0 renal = tested on: 786-0 renal
UACC-257 melanoma = tested on: UACC-257 melanoma
HOP-92 NSCLC = tested on: HOP-92 NSCLC
MDA-N = tested on: MDA-N
RPMI-8226 leukemia = tested on: RPMI-8226 leukemia
TK-10 renal = tested on: TK-10 renal
SK-MEL-28 melanoma = tested on: SK-MEL-28 melanoma
LOX IMVI melanoma = tested on: LOX IMVI melanoma
PC-3 prostate = tested on: PC-3 prostate
DU-145 prostate = tested on: DU-145 prostate
SK-OV-3 ovarian = tested on: SK-OV-3 ovarian
K-562 leukemia = tested on: K-562 leukemia
HCC-2998 colon = tested on: HCC-2998 colon
NCI/ADR-RES ovarian = tested on: NCI/ADR-RES ovarian
HCT-116 colon = tested on: HCT-116 colon
NCI-H23 lung = tested on: NCI-H23 lung
HCT-15 colon = tested on: HCT-15 colon
HL-60(TB) leukemia = tested on: HL-60(TB) leukemia
LXFL 529 NSCLC = tested on: LXFL 529 NSCLC
NCI-H460 lung = tested on: NCI-H460 lung
BT-549 breast = tested on: BT-549 breast
A549 NSCLC = tested on: A549 NSCLC
RXF 393 renal = tested on: RXF 393 renal
CAKI-1 renal = tested on: CAKI-1 renal
SNB-78 CNS = tested on: SNB-78 CNS
T-47D breast = tested on: T-47D breast
SF-295 CNS = tested on: SF-295 CNS
DMS 114 small cell lung = tested on: DMS 114 small cell lung
SR leukemia = tested on: SR leukemia
M19-MEL melanoma = tested on: M19-MEL melanoma
NCI-H226 lung = tested on: NCI-H226 lung

COC(=O)[C@H](C)N(C)C(=O)C(CC(N)=O)N(C)C(=O)[C@H](Cc1ccccc1)N(C)C(=O)[C@@H]1CCCN1C(=O)[C@H](C(C)C)N(C)C(=O)C(C(C)C)N(C)C(=O)[C@@H](NC(=O)OC(C)(C)C)C(C)C (some centres undefined) (Boc-V[ξNMeV][NMeV]P[NMeF][ξNMeN][NMeA]-OMe)
GI50 (UACC-62 melanoma): 25.8 µM | TGI (UACC-62 melanoma): > 75 µM | GI50 (SK-MEL-2 melanoma): 18 µM | TGI (SK-MEL-2 melanoma): > 50 µM and 48.8 µM | TGI (OVCAR-3 ovarian): > 75 µM | TGI (XF 498 CNS): > 75 µM | GI50 (ACHN renal): > 75 µM | TGI (ACHN renal): > 75 µM | GI50 (EKVX NSCLC): > 75 µM | TGI (EKVX NSCLC): > 75 µM | GI50 (SW-620 colon): 34.7 µM | TGI (SW-620 colon): > 75 µM | TGI (SF-268 CNS): > 75 µM | GI50 (A498 renal): 60.1 µM | TGI (A498 renal): > 75 µM | GI50 (SK-MEL-5 melanoma): 35.2 µM | TGI (SK-MEL-5 melanoma): > 75 µM | TGI (MDA-MB-435): > 50 µM | GI50 (M14 melanoma): 31.6 µM | TGI (M14 melanoma): > 75 µM | TGI (OVCAR-8 ovarian): > 75 µM | GI50 (SF-539 CNS): > 75 µM | TGI (SF-539 CNS): > 75 µM | GI50 (OVCAR-5 ovarian): > 75 µM | TGI (OVCAR-5 ovarian): > 75 µM | TGI (KM12 colon): 34 µM | TGI (MALME-3M melanoma): > 75 µM | GI50 (CCRF-CEM leukemia): 21.8 µM | TGI (CCRF-CEM leukemia): 39.3 µM and > 75 µM | TGI (DMS 273 small cell lung): > 75 µM | TGI (DLD-1 colon): > 75 µM | TGI (OVCAR-4 ovarian): > 75 µM | GI50 (MOLT-4 leukemia): 17.1 µM | TGI (MOLT-4 leukemia): 50 µM and 51.1 µM | GI50 (IGROV1 ovarian): 36.7 µM | TGI (IGROV1 ovarian): > 75 µM | GI50 (NCI-H522 lung): 34.8 µM | TGI (NCI-H522 lung): > 75 µM | GI50 (HT29 colon): 27.2 µM | TGI (HT29 colon): > 75 µM | GI50 (SNB-19 CNS): > 75 µM | TGI (SNB-19 CNS): > 75 µM | GI50 (U251 CNS): 67.1 µM | TGI (U251 CNS): > 75 µM | TGI (SN12C renal): > 75 µM | TGI (SNB-75 CNS): > 75 µM | TGI (KM20L2 colon): > 75 µM | TGI (MCF7 breast): > 50 µM | TGI (MDA-MB-231 breast): > 50 µM | GI50 (COLO 205 colon): > 75 µM | TGI (COLO 205 colon): > 75 µM | GI50 (UO-31 renal): 40.6 µM | TGI (UO-31 renal): > 75 µM | GI50 (HOP-62 NSCLC): > 75 µM | TGI (HOP-62 NSCLC): > 75 µM | GI50 (786-0 renal): > 75 µM | TGI (786-0 renal): > 75 µM | TGI (UACC-257 melanoma): > 75 µM | GI50 (HOP-92 NSCLC): 17.2 µM | TGI (HOP-92 NSCLC): 50 µM and 57.4 µM | TGI (MDA-N): > 50 µM | TGI (RPMI-8226 leukemia): > 5 µM | GI50 (TK-10 renal): 59.2 µM | TGI (TK-10 renal): > 75 µM | GI50 (SK-MEL-28 melanoma): 31.4 µM | TGI (SK-MEL-28 melanoma): > 75 µM | GI50 (LOX IMVI melanoma): 26.7 µM | TGI (LOX IMVI melanoma): > 75 µM | TGI (PC-3 prostate): > 50 µM | TGI (DU-145 prostate): > 50 µM | GI50 (SK-OV-3 ovarian): > 75 µM | TGI (SK-OV-3 ovarian): > 75 µM | GI50 (K-562 leukemia): 33.1 µM | TGI (K-562 leukemia): > 75 µM | GI50 (HCC-2998 colon): 38.5 µM | TGI (HCC-2998 colon): > 75 µM | TGI (NCI/ADR-RES ovarian): > 50 µM | GI50 (HCT-116 colon): 28 µM | TGI (HCT-116 colon): > 75 µM | GI50 (NCI-H23 lung): 35.6 µM | TGI (NCI-H23 lung): > 75 µM | TGI (HCT-15 colon): > 75 µM | GI50 (HL-60(TB) leukemia): 16.8 µM | TGI (HL-60(TB) leukemia): 35.9 µM and 36.3 µM | TGI (LXFL 529 NSCLC): > 75 µM | GI50 (NCI-H460 lung): 25.4 µM | TGI (NCI-H460 lung): > 75 µM | TGI (BT-549 breast): > 50 µM | GI50 (A549 NSCLC): > 75 µM | TGI (A549 NSCLC): > 75 µM | TGI (RXF 393 renal): 50 µM | GI50 (CAKI-1 renal): > 75 µM | TGI (CAKI-1 renal): > 75 µM | TGI (SNB-78 CNS): > 75 µM | TGI (T-47D breast): > 50 µM | GI50 (SF-295 CNS): > 75 µM | TGI (SF-295 CNS): > 75 µM | TGI (DMS 114 small cell lung): 55.6 µM | TGI (SR leukemia): 62.4 µM | TGI (M19-MEL melanoma): 50.9 µM | TGI (NCI-H226 lung): > 75 µM

COc1cc(C2Oc3cc(-c4oc5cc(O)cc(O)c5c(=O)c4O)ccc3OC2CO)ccc1O (centres undefined)
TGI (UACC-62 melanoma): > 100 µM | TGI (SK-MEL-2 melanoma): 32.6 µM | TGI (OVCAR-3 ovarian): 54.8 µM | TGI (XF 498 CNS): > 62.4 µM | TGI (ACHN renal): 29.1 µM | TGI (SW-620 colon): > 100 µM | TGI (SF-268 CNS): > 57.2 µM | TGI (A498 renal): > 49.3 µM | TGI (SK-MEL-5 melanoma): 96.5 µM | TGI (M14 melanoma): > 70.5 µM | TGI (OVCAR-8 ovarian): > 100 µM | TGI (SF-539 CNS): 34.3 µM | TGI (KM12 colon): > 100 µM | TGI (MALME-3M melanoma): 67 µM | TGI (CCRF-CEM leukemia): > 100 µM | TGI (DMS 273 small cell lung): 31.2 µM | TGI (DLD-1 colon): > 100 µM | TGI (OVCAR-4 ovarian): > 76.7 µM | TGI (MOLT-4 leukemia): > 38.9 µM | TGI (IGROV1 ovarian): > 100 µM | TGI (NCI-H522 lung): > 30 µM | TGI (HT29 colon): 69.7 µM | TGI (SNB-19 CNS): 81.7 µM | TGI (U251 CNS): > 100 µM | TGI (SN12C renal): > 95.2 µM | TGI (SNB-75 CNS): > 60.7 µM | TGI (COLO 205 colon): 75.3 µM | TGI (UO-31 renal): 6.81 µM | TGI (HOP-62 NSCLC): > 80.4 µM | TGI (786-0 renal): 72.8 µM | TGI (UACC-257 melanoma): > 100 µM | TGI (HOP-92 NSCLC): 52 µM | TGI (RPMI-8226 leukemia): > 56.4 µM | TGI (TK-10 renal): 58.3 µM | TGI (SK-MEL-28 melanoma): 62.3 µM | TGI (SK-OV-3 ovarian): > 95.5 µM | TGI (K-562 leukemia): > 100 µM | TGI (HCC-2998 colon): > 78.9 µM | TGI (HCT-116 colon): > 37.1 µM | TGI (NCI-H23 lung): 34.9 µM | TGI (HCT-15 colon): > 100 µM | TGI (HL-60(TB) leukemia): > 64.5 µM | TGI (LXFL 529 NSCLC): > 100 µM | TGI (NCI-H460 lung): 12.7 µM | TGI (A549 NSCLC): > 100 µM | TGI (RXF 393 renal): 6.02 µM | TGI (CAKI-1 renal): > 73.2 µM | TGI (SNB-78 CNS): > 100 µM | TGI (SF-295 CNS): 64.8 µM | TGI (DMS 114 small cell lung): > 100 µM | TGI (SR leukemia): > 54.1 µM | TGI (M19-MEL melanoma): > 100 µM | TGI (NCI-H226 lung): 82.1 µM
